PubChem BioAssay (NCI)
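Five concentrations, 48 hours, 96-well plates. GI50 marks 50% less growth. TGI: concentration producing complete growth inhibition.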

What was measured:
Assay in all cases: NCI tumour cell line growth inhibition, 48 h
HCT-116 colon = system: HCT-116 colon
NCI/ADR-RES ovarian = system: NCI/ADR-RES ovarian
MALME-3M melanoma = system: MALME-3M melanoma
SW-620 colon = system: SW-620 colon
SF-539 CNS = system: SF-539 CNS
HOP-62 NSCLC = system: HOP-62 NSCLC
HT29 colon = system: HT29 colon
SF-295 CNS = system: SF-295 CNS
COLO 205 colon = system: COLO 205 colon
MDA-N = system: MDA-N

| Compound | TGI (HCT-116 colon) [µM] | TGI (NCI/ADR-RES ovarian) [µM] | TGI (MALME-3M melanoma) [µM] | TGI (SW-620 colon) [µM] | TGI (SF-539 CNS) [µM] | TGI (HOP-62 NSCLC) [µM] | TGI (HT29 colon) [µM] | TGI (SF-295 CNS) [µM] | TGI (COLO 205 colon) [µM] | TGI (MDA-N) [µM] | GI50 (HCT-116 colon) [µM] | GI50 (SW-620 colon) [µM] | GI50 (SF-539 CNS) [µM] | GI50 (HT29 colon) [µM] | GI50 (COLO 205 colon) [µM] |
| --- | --- | --- | --- | --- | --- | --- | --- | --- | --- | --- | --- | --- | --- | --- | --- |
| COc1cc(CNC(=S)CCCCCCCCCCC(C)C)ccc1O | > 100 | > 100 | > 100 | > 100 | > 100 | > 100 | > 100 | > 100 | > 100 |  |  |  |  |  |  |
| O=[N+]([O-])c1ccc2c(c1)n1c(N3CCCC3)[n+]3ccccc3c1c1c3cccc[n+]3c(N3CCCC3)n21 | > 100 | > 100 | > 100 | > 100 | > 100 |  |  | > 100 | > 100 | > 100 |  |  |  |  |  |
| O=C(O)CCSC1=NCCN1 | > 100 | > 100 | > 100 | > 100 |  | > 100 | > 100 | > 100 | > 100 | > 100 |  |  |  |  |  |
| CC(C)(CN1CCCCC1)C(/C=C/c1ccccc1)=N\NC(=O)N/N=C(/C=C/c1ccccc1)C(C)(C)CN1CCCCC1 | 2.93 | 4.01 | 3.7 | 3.13 |  | 3.71 | 2.53 | 3.09 | 2.81 | 3.01 |  |  |  |  |  |
| C[C@]12CCC(=O)C=C1CC[C@@H]1[C@@H]2[C@@H](O)C[C@@]2(C)[C@H]1CC[C@]2(O)C(=O)COC(=O)CCC1CCCC1 | > 100 |  | > 100 | > 100 | > 100 |  | > 100 | > 100 | > 100 |  |  |  |  |  |  |
| C=C(C)[C@@H]1CC[C@]2(CO)CC[C@]3(C)[C@H](CC[C@@H]4[C@@](C)(CCCN)[C@H](C(=C)C)CC[C@]43C)[C@@H]12 | 3.02 |  |  | 3.51 | 2.99 |  | 3.77 |  | 3.34 |  | 1.4 | 1.75 | 1.63 | 1.58 | 1.63 |
| CCN(CCCl)c1cccc(NC(=O)c2ccc(C(=O)Nc3cccc(CN(C)C)c3)cc2)c1 | 12.4 | > 100 | 0.166 | 11.9 | 0.611 | 6.14 |  | 13.2 | 0.24 | 0.286 |  |  |  |  |  |
| CCOC(=O)CCC(NC(=O)OCc1ccccc1)C(=O)NC(CCC(=O)OCC)C(=O)NC(CCC(=O)OCC)C(=O)NNC(=O)OC(C)(C)C (centres undefined) | > 100 |  | > 100 | > 100 |  | > 100 | > 100 |  | > 100 | > 100 |  |  |  |  |  |
| COC1(OC)C=CC(=O)C=C1 | 2.77 | 13.7 |  | 3.12 | 11.8 | 24.5 | 12.1 | 23.9 | 28.1 | > 36.8 |  |  |  |  |  |
| N#C/C(C(=O)Nc1ccccc1)=C(/N)N1CCCCC1 | > 100 | > 100 |  | > 100 | > 100 | > 100 | > 100 | > 100 | > 100 | > 100 |  |  |  |  |  |
| Cn1c(=O)n(CC2CS2)c2ccccc21 (centres undefined) | > 100 |  | > 100 | > 100 | > 100 | > 100 | > 100 | > 100 | > 100 |  |  |  |  |  |  |
